T/C % data for two molecules are collected here from patent publication US8784818B2, “Anti-VEGFR-3 antibody compositions” (ImClone LLC, priority 2010, dated 2014).

One test deals with NCI-H292 tumor. Kind of test: NCI-H292 lung cancer xenograft model. The following applies: versus control group; Antibody 2 40 mg/kg 3 times per week i.p.; Docetaxel 12 mg/kg q7d; through Day 26. The test is classed as in vivo, mice. Here is the method: In order to test for activity of anti-VEGFR-3 antibodies in lung cancer, the NCI-H292 xenograft model is used. Nu/nu mice (female, 7-8 weeks of age) are injected subcutaneously with 2×10^6 NCI-H292 cells/mouse. When tumors reach approximately 300 mm^3, mice are randomized by tumor size into the following treatment groups (n=15): 1) USP saline at 10 μl/g, 3 times per week, i.p., starting on day 2. 2) Antibody 2 at 40 mg/kg, 3 times per week, i.p., starting day 2. 3) Docetaxel at 12 mg/kg, q7d, starting day 1. 4) Docetaxel at 12 mg/kg, q7d, starting day 1 plus Antibody 2 at 40 mg/kg, 3 times per week, starting day 2.
Tumor volumes are measured approximately twice a week and body weights are recorded at least twice a week for the duration of the study. At sacrifice, mice are euthanized by CO2 asphyxiation. The T/C % is calculated for each treatment group as the ratio of the relative tumor volume in the experimental groups versus the control group. Tumor growth and body weights are compared to the control group by repeated measures ANOVA through Day 26.

The test system of another test is CAL27 tumors. Kind of test: CAL27 squamous cell carcinoma xenograft model. The test is classed as in vivo, mice. The following applies: versus USP saline; Antibody 2 40 mg/kg 3 days per week; cisplatin 7 mg/kg q7d; through Day 61. Here is the method: In order to test for activity of anti-VEGFR-3 antibodies in head and neck cancer, the CAL27 xenograft model is used. CAL27 cell suspension, at 1×10^7 cells/mouse, is injected s.c. into the left flank of 60 female athymic mice. When tumors reach ˜180 mm^3, eight days after cell implantation, the mice are randomized and divided into four treatment groups (n=12): 1.) USP saline control, 0.5 ml i.p., 3 days per week 2.) Antibody 2 at 40 mg/kg, 3 days per week 3.) cisplatin at 7 mg/kg, q7d 4.) Antibody 2 at 40 mg/kg, 3 days per week+cisplatin at 7 mg/kg, q7d.
Tumor measurements are recorded twice weekly; RM ANOVA through Day 61 is used to compare tumor growth among the treatment groups. Chi Squared tests are used to test for statistical significance in the number of tumor regressions among the treatment groups.

In the case of `CC(=O)O[C@@]12CO[C@@H]1C[C@H](O)[C@@]1(C)C(=O)[C@H](O)C3=C(C)[C@@H](OC(=O)[C@H](O)[C@@H](NC(=O)OC(C)(C)C)c4ccccc4)C[C@@](O)([C@@H](OC(=O)c4ccccc4)[C@H]21)C3(C)C` [Docetaxel], the T/C % with NCI-H292 tumor came to 49%.

`N.N.[Cl][Pt][Cl]` [cisplatin]: in the test on CAL27 tumors, the T/C % was found to be 39%.
